Reference: patent US20020137929A1, “1 - (3-heterocyclylphenyl) isothiourea, -isourea, -guanidine and -amidine herbicidal agents” (Intellectual Property Department, BASF Aktiengesellschaft, priority 1998, published 2002)

Tests used:
CASOB (Sicklepod) [1] = experiment: Postemergence herbicidal evaluation; format: in vivo, Cassia obtusifolia; conditions: postemergence
Outline: (§1)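 Herbicidal effect was judged by eye on a 0–9 scale covering stand, vigor, deformity, size and chlorosis, compared with controls, four to five weeks after seedlings about two weeks old were sprayed (40 psi, ~0.0156–0.500 kg/ha).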

[2] = tested on: CHEAL (Lambsquarters, Common); experiment: Postemergence herbicidal evaluation; format: in vivo, Chenopodium album; conditions: postemergence
Outline: as §1

CYPIR (Rice Flatsedge) = experiment: Preemergence weed control under flooded paddy conditions; format: in vivo, Cyperus iria; conditions: rated 3-4 weeks after treatment
Outline: (§2)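 Seeds or propagules sown in top 0.5 cm of silt loam soil, flooded 1.5 to 3 cm above surface throughout. Compound in 50/50 v/v aqueous/acetone pipetted into flood water at about 0.0313 to 0.500 kg/ha. Visual 0-9 rating versus control after three to four weeks in greenhouse.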

SETVI (Foxtail, Green) = experiment: Postemergence herbicidal evaluation; format: in vivo, Setaria viridis; conditions: postemergence
Outline: as §1

CASOB (Sicklepod) [3] = experiment: Preemergence herbicidal evaluation; format: in vivo, Cassia obtusifolia; conditions: rated 4-5 weeks after treatment
Outline: (§3)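 Seeds were planted in potting soil in cups, then sprayed preemergence with the test compound in aqueous acetone at about 0.0156 to 0.500 kg per hectare. Cups were kept under greenhouse conditions and visually rated 4–5 weeks after treatment on a 0–9 scale against an untreated control.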

CYPSE (Flatsedge) [4] = experiment: Preemergence weed control under flooded paddy conditions; format: in vivo, Cyperus serotinus; conditions: rated 3-4 weeks after treatment
Outline: as §2

[5] = tested on: SAGPY (Arrowhead (Pygmaea)); experiment: as above; format: in vivo, Sagittaria pygmaea; conditions: rated 3-4 weeks after treatment
Outline: as §2

AMBEL (Ragweed, Common) = experiment: Postemergence herbicidal evaluation; format: in vivo, Ambrosia artemisifolia; conditions: postemergence
Outline: as §1

ORYSAT (Rice, Tebonnet) = experiment: Postemergence herbicidal evaluation; format: in vivo, Oryza sativa, (L.) Tebonnet; conditions: postemergence
Outline: as §1

CYPSE (Flatsedge) [6] = experiment: Postemergence weed control under flooded paddy conditions; format: in vivo, Cyperus serotinus; conditions: postemergence weeds, 3-4 weeks after treatment
Outline: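 With weeds 3 to 5 cm tall and rice at the 1.5 to 2.5 leaf stage, containers were flooded and water held 1.5 to 3 cm above soil. Compounds in 50/50 v/v aqueous/acetone went into the flood water at about 0.0313 to 0.500 kg/ha a.i. Effects were visually rated 0–9 against controls after three to four weeks in the greenhouse.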

[7] = tested on: GLXMAW (Soybean, Williams); experiment: Postemergence herbicidal evaluation; format: in vivo, Glycine max, (L.) Merr. cv Williams; conditions: postemergence
Outline: as §1

ZEAMX (Corn, Field) = experiment: Preemergence herbicidal evaluation; format: in vivo, Zea mays; conditions: rated 4-5 weeks after treatment
Outline: as §3

GALAP (Galium) = experiment: Postemergence herbicidal evaluation; format: in vivo, Galium aparine; conditions: postemergence
Outline: as §1

ECHCG (Barnyardgrass) = experiment: Postemergence herbicidal evaluation; format: in vivo, Echinochloa crus-galli; conditions: postemergence
Outline: as §1

C=CCN1C(=O)CSC1=Nc1cc(N2C(=O)C3=C(CCCC3)C2=O)c(F)cc1Cl [Compound 2, N-{5-[(3-allyl-4-oxo-2-thiazolidinylidene)amino]-4-chloro-2-fluorophenyl}-1-cyclohexene-1,2-dicarboximide]
1.0: Herbicidal rating CYPIR (CYPIR (Rice Flatsedge); 0.5000 kg/ha)
0.0: Herbicidal rating CYPIR (CYPIR (Rice Flatsedge); 0.0313 kg/ha) | Herbicidal rating CYPIR (CYPIR (Rice Flatsedge); 0.0625 kg/ha) | Herbicidal rating CYPIR (CYPIR (Rice Flatsedge); 0.1250 kg/ha) | Herbicidal rating CYPIR (CYPIR (Rice Flatsedge); 0.2500 kg/ha) | SETVI herbicidal rating (SETVI (Foxtail, Green); rate 0.0157 kg/ha) | SETVI herbicidal rating (SETVI (Foxtail, Green); rate 0.0313 kg/ha) | SETVI herbicidal rating (SETVI (Foxtail, Green); rate 0.1250 kg/ha) | SETVI herbicidal rating (SETVI (Foxtail, Green); rate 0.2500 kg/ha) | SETVI herbicidal rating (SETVI (Foxtail, Green); rate 0.5000 kg/ha) | Herbicidal rating CYPSE (CYPSE (Flatsedge) [4]; 0.0313 kg/ha) | Herbicidal rating CYPSE (CYPSE (Flatsedge) [4]; 0.0625 kg/ha) | Herbicidal rating CYPSE (CYPSE (Flatsedge) [4]; 0.1250 kg/ha) | Herbicidal rating CYPSE (CYPSE (Flatsedge) [4]; 0.2500 kg/ha) | Herbicidal rating CYPSE (CYPSE (Flatsedge) [4]; 0.5000 kg/ha) | Herbicidal rating SAGPY ([5]; 0.0313 kg/ha) | Herbicidal rating SAGPY ([5]; 0.0625 kg/ha) | Herbicidal rating SAGPY ([5]; 0.1250 kg/ha) | Herbicidal rating SAGPY ([5]; 0.2500 kg/ha) | Herbicidal rating SAGPY ([5]; 0.5000 kg/ha) | Herbicidal rating CYPSE (CYPSE (Flatsedge) [6]; rate 0.0313 kg/ha) | Herbicidal rating CYPSE (CYPSE (Flatsedge) [6]; rate 0.0625 kg/ha) | Herbicidal rating CYPSE (CYPSE (Flatsedge) [6]; rate 0.1250 kg/ha) | Herbicidal rating CYPSE (CYPSE (Flatsedge) [6]; rate 0.2500 kg/ha) | Herbicidal rating CYPSE (CYPSE (Flatsedge) [6]; rate 0.5000 kg/ha) | ZEAMX preemergence herbicidal rating (ZEAMX (Corn, Field); rate 0.0313 kg/ha) | ZEAMX preemergence herbicidal rating (ZEAMX (Corn, Field); rate 0.0625 kg/ha) | ZEAMX preemergence herbicidal rating (ZEAMX (Corn, Field); rate 0.1250 kg/ha) | ZEAMX preemergence herbicidal rating (ZEAMX (Corn, Field); rate 0.2500 kg/ha) | ZEAMX preemergence herbicidal rating (ZEAMX (Corn, Field); rate 0.5000 kg/ha) | ECHCG herbicidal rating (ECHCG (Barnyardgrass); rate 0.0157 kg/ha) | ECHCG herbicidal rating (ECHCG (Barnyardgrass); rate 0.0313 kg/ha) | ECHCG herbicidal rating (ECHCG (Barnyardgrass); rate 0.0625 kg/ha) | ECHCG herbicidal rating (ECHCG (Barnyardgrass); rate 0.1250 kg/ha) | ECHCG herbicidal rating (ECHCG (Barnyardgrass); rate 0.2500 kg/ha) | ECHCG herbicidal rating (ECHCG (Barnyardgrass); rate 0.5000 kg/ha)
3.5: ORYSAT herbicidal rating (ORYSAT (Rice, Tebonnet); rate 0.1250 kg/ha) | ORYSAT herbicidal rating (ORYSAT (Rice, Tebonnet); rate 0.2500 kg/ha) | GLXMAW herbicidal rating ([7]; rate 0.0157 kg/ha) | GLXMAW herbicidal rating ([7]; rate 0.0313 kg/ha) | GLXMAW herbicidal rating ([7]; rate 0.0625 kg/ha)
3.0: ORYSAT herbicidal rating (ORYSAT (Rice, Tebonnet); rate 0.0157 kg/ha) | ORYSAT herbicidal rating (ORYSAT (Rice, Tebonnet); rate 0.0313 kg/ha) | ORYSAT herbicidal rating (ORYSAT (Rice, Tebonnet); rate 0.0625 kg/ha) | ORYSAT herbicidal rating (ORYSAT (Rice, Tebonnet); rate 0.5000 kg/ha) | GLXMAW herbicidal rating ([7]; rate 0.1250 kg/ha) | GLXMAW herbicidal rating ([7]; rate 0.2500 kg/ha) | GLXMAW herbicidal rating ([7]; rate 0.5000 kg/ha)
4.0: CASOB herbicidal rating (CASOB (Sicklepod) [1]; rate 0.0157 kg/ha) | CASOB herbicidal rating (CASOB (Sicklepod) [1]; rate 0.0313 kg/ha) | CASOB herbicidal rating (CASOB (Sicklepod) [1]; rate 0.2500 kg/ha) | AMBEL herbicidal rating (AMBEL (Ragweed, Common); rate 0.0157 kg/ha) | GALAP herbicidal rating (GALAP (Galium); rate 0.0157 kg/ha) | GALAP herbicidal rating (GALAP (Galium); rate 0.0625 kg/ha) | GALAP herbicidal rating (GALAP (Galium); rate 0.1250 kg/ha) | GALAP herbicidal rating (GALAP (Galium); rate 0.2500 kg/ha) | GALAP herbicidal rating (GALAP (Galium); rate 0.5000 kg/ha)
9.0: CHEAL herbicidal rating ([2]; rate 0.1250 kg/ha) | CHEAL herbicidal rating ([2]; rate 0.5000 kg/ha) | AMBEL herbicidal rating (AMBEL (Ragweed, Common); rate 0.5000 kg/ha)
6.0: CHEAL herbicidal rating ([2]; rate 0.0313 kg/ha) | AMBEL herbicidal rating (AMBEL (Ragweed, Common); rate 0.0625 kg/ha) | AMBEL herbicidal rating (AMBEL (Ragweed, Common); rate 0.2500 kg/ha)
7.0: CASOB herbicidal rating (CASOB (Sicklepod) [1]; rate 0.5000 kg/ha) | CHEAL herbicidal rating ([2]; rate 0.0157 kg/ha) | CHEAL herbicidal rating ([2]; rate 0.2500 kg/ha)
8.0: CHEAL herbicidal rating ([2]; rate 0.0625 kg/ha) | GALAP herbicidal rating (GALAP (Galium); rate 0.0313 kg/ha)
2.0: CASOB herbicidal rating (CASOB (Sicklepod) [1]; rate 0.0625 kg/ha) | CASOB herbicidal rating (CASOB (Sicklepod) [1]; rate 0.1250 kg/ha) | CASOB preemergence herbicidal rating (CASOB (Sicklepod) [3]; rate 0.0313 kg/ha) | CASOB preemergence herbicidal rating (CASOB (Sicklepod) [3]; rate 0.0625 kg/ha) | CASOB preemergence herbicidal rating (CASOB (Sicklepod) [3]; rate 0.5000 kg/ha) | AMBEL herbicidal rating (AMBEL (Ragweed, Common); rate 0.0313 kg/ha) | AMBEL herbicidal rating (AMBEL (Ragweed, Common); rate 0.1250 kg/ha)
